Test results: patent US6686382B2, “Sulfonamides and derivatives thereof that modulate the activity of endothelin” (Encysive Pharmaceuticals Inc., priority 1999, dated 2004)

target: T1, human ETA receptors (Homo sapiens, UniProt P25101); assay: Endothelin binding inhibition, Binding Test #1: inhibition of binding to ETA receptors (TE 671 cell membranes); details: relative to N-(4-chloro-3-methyl-5-isoxazolyl)-2-{[3,4-(methylenedioxy)-6-methylphenyl)acetyl]-thiophene-3-sulfonamide (= 1.0)
T1 construct: endogenous in cells; host or cells: TE 671 cells (ATCC HTB 139), membrane preparation
T1 sequence (P25101 21-427): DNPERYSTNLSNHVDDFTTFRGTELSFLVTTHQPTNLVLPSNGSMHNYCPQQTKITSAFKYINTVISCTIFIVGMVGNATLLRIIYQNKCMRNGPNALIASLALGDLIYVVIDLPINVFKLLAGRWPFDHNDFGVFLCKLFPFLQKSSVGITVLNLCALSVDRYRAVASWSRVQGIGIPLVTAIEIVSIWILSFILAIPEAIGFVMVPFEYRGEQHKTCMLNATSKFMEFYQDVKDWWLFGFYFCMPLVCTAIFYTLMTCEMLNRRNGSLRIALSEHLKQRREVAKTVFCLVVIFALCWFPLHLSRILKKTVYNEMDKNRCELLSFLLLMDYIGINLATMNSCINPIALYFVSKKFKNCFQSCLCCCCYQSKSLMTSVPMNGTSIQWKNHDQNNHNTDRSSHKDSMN
Source text: Compounds that are potential endothelin antagonists are identified by testing their ability to compete with ^125I-labeled ET-1 for binding to human ETA receptors or ETB receptors present on isolated cell membranes. The effectiveness of the test compound as an antagonist or agonist of the biological tissue response of endothelin can also be assessed by measuring the effect on endothelin induced contraction of isolated rat thoracic aortic rings. The ability of the compounds to act as antagonists or agonists for ETB receptors can be assess by testing the ability of the compounds are to inhibit endothelin-1 induced prostacyclin release from cultured bovine aortic endothelial cells.
A. Endothelin Binding Inhibition—Binding Test #1: Inhibition of Binding to ETA Receptors
TE 671 cells (ATCC Accession No. HTB 139) express ETA receptors. These cells were grown to confluence in T-175 flasks. Cells from multiple flasks were collected by scraping, pooled and centrifugedfor 10 min at 190×g. The cells were resuspended in phosphate buffered saline (PBS) containing 10 mM EDTA using a Tenbroeck homogenizer. The suspension was centrifuged at 4° C. at 57,800×g for 15 min, the pellet was resuspended in 5 ml of buffer A (5 mM HEPES buffer, pH 7.4 containing aprotinin (100 KIU/ml)) and then frozen and thawed once. 5 ml of Buffer B (5 mM HEPES Buffer, pH 7.4 containing 10 mM MnCl2 and 0.001% deoxyribonuclease Type 1) was added, the suspension mixed by inversion and then incubated at 37° C. for 30 minutes. The mixture was centrifuged at 57,800×g as described above, the pellet washed twice with buffer A and then resuspended in buffer C (30 mM HEPES buffer, pH 7.4 containing aprotinin (100 KIU/ml) to give a final protein concentration of 2 mg/ml and stored at −70° C. until use.
The membrane suspension was diluted with binding buffer (30 mM HEPES buffer, pH 7.4 containing 150 mM NaCl, 5 mM MgCl2, 0.5% Bacitracin) to a concentration of 8 μg/50 μl. ^125I-endothelin-1 (3,000 cpm, […]) was added to 50 μL of either: (A) endothelin-1 (for non specific binding) to give a final concentration 80 nM); (B) binding buffer (for total binding); or (C) a test compound (final concentration 1 nM to 100 μM). The membrane suspension (50 μL), containing up to 8 μg of membrane protein, was added to each of (A), (B), or (C). Mixtures were shaken, and incubated at 4° C. for 16-18 hours, and then centrifuged at 4° C. for 25 min at 2,500×g. Alternatively, the incubation was conducted at 24° C. […] This, must be kept in mind when comparing IC50 concentrations among compounds provided herein.
The supernatant, containing unbound radioactivity, was decanted and the pellet counted on a Genesys multiwell gamma counter. The degree of inhibition of binding (D) was calculated according to the following equation: [formula]
Each test was generally performed in triplicate.

Structure (SMILES) | ETA ACTIVITY (ETA antagonist activity relative to reference compound)
CC(=O)c1cc(C)cc(C)c1NC(=O)c1sccc1S(=O)(=O)Nc1onc(C)c1C [Compound 7, N-(2-acetyl-4,6-dimethylphenyl)-3-{[(3,4 dimethyl-5-isoxazolyl)amino]sulfonyl}-2-thiophenecarboxamide] | 18.1
Cc1cc(C)c(NC(=O)c2sccc2S(=O)(=O)Nc2onc(C)c2Cl)c(Cl)c1 [Compound 34, N-(2-chloro-4,6-dimethylphenyl)-3-{[(4-chloro-3-methyl-5-isoxazolyl)amino]sulfonyl}2-thiophenecarboxamide] | 20.7
Cc1cc(C)c(NC(=O)c2sccc2S(=O)(=O)Nc2onc(C)c2Cl)c(S(C)(=O)=O)c1 [Compound 42, 3-{[(4-chloro-3-methyl-5-isoxazolyl)amino]sulfonyl)-N-[2,4-dimethyl-6-(methylsulfonyl)phenyl]-2-thiophenecarboxamide] | 64.1
Cc1cc2c(cc1CC(=O)c1sccc1S(=O)(=O)Nc1onc(C)c1Cl)OCO2 [N-(4-chloro-3-methyl-5-isoxazolyl)-2-{[3,4-(methylenedioxy)-6-methylphenyl)acetyl]-thiophene-3-sulfonamide, reference compound] | 1.0
